Measured values published in patent US20200376035A1, “METHODS AND COMPOSITIONS COMPRISING CART AND A SMAC MIMETIC” (THE TRUSTEES OF THE UNIVERSITY OF PENNSYLVANIA, priority 2018, published 2020).
*1 amine or outer side, *2 acyl side, *3 side chain or, on linkers, in order; H or OH if unused. Where a SMILES comes first, the peptide text is derived from it. Bridges are numbered along the chain shown (N, C = ends). Roman numbers before positions name the chains, in order. [ ]: non-standard residue; d: D form. Hexamethylenediamine = C(CCCN[*:2])CCN[*:1]; Dip = N[C@H](C(=O)O)C(c1ccccc1)c1ccccc1; Chg = N[C@H](C(=O)O)C1CCCCC1; NMeA = CN[C@@H](C)C(=O)O

Key:
[1] = system: HER2+ human ovarian cancer cell line (SKOV3); assay: SMAC mimetics with anti-HER2 CAR T (4D5) against SKOV3, luminescence and XCelligence; assay type: cell-based; details: SKOV3 + anti-HER2 CAR T (4D5), 50 nM drug vs DMSO
Procedure: FIGS. 12A-12B illustrate the synergistic killing of solid tumors using CAR cells in combination with SMAC mimetics. […] E:T ratio=0.01:1, [Drug]=50 nM. 24 h co-culture, A human ovarian cell line expressing endogenous HER2 and luciferase reporter (SKOV3 CBG-T2A-GFP) was seeded at density of 10^4 cells/100 μl of media in each well of 96 well plate and grown overnight. Next day, CAR T cells (4D5; Liu et al. Cancer Research 2015; (75)(17):3596-607, incorporated by reference herein in its entirety) were introduced at E:T ratio=0.01:1 50 nM of SMAC mimetics or corresponding amounts of DMSO. After 48 hours, luciferin was added to the cells and luminescence was detected using a luminometer (Biotek Synergy H4). Tumor killing was calculated using the formula: (sample-tumor treated with DMSO)/(lysis control-tumor treated with DMSO). A human ovarian adenocarcinoma cell line (SKOV3) expressing endogenous HER2 was cultured in the presence or absence of human T cells expressing a chimeric antigen receptor against HER2 at a 1:1 CART:Tumor ratio. Cells were treated with 50 nM of birinapant ([…]), BV6, AZD5582 or corresponding amounts of DMSO. Tumor killing was monitored in real-time using the impedance-based […]@ system (ACEA Biosciences, Inc).

[2] = system: CD19+ Luc+ NALM-6 leukemia cell line; assay: High-throughput screen of small molecule library for CART-enhancing compounds (luminescence, 48 hours); assay type: cell-based, human; details: for effect on CART killing activity in the screen: NALM-6 + CART19, 0.3:1 E:T ratio
Procedure: FIG. 6 illustrates a high-throughput platform to identify CART-enhancing bioactive compounds. The CD19+ Luc+ NALM-6 leukemia cell line was plated at 0.3:1 E:T ratio+/− CART19 using an automated dispenser, Small molecules from a custom-made library (SelleckChem) were then added via an automated workstation and luminescence was detected after 48 hours with a high-throughput plate reader.
FIG. 7 illustrates that birinapant enhances CART cell cytotoxicity. Screening results: total cytotoxicity (%) of small molecules alone (Y axis) or in combination with CART (X axis). Birinapant is represented by the dot at the “40” mark on the X axis (●).
An unbiased, reliable, automated, high-throughput system was generated to test thousands of different combinations of CART and small molecules. […] Subsequently, 2,615 different small molecules were added (1 per well). More than half of these drugs are FDA-approved. After 48 hours, tumor luminescence was recorded and percentage tumor killing was calculated. This platform has already generated several significant hits. See FIG. 7, birinapant in grey, represented by the dot at the “40” mark on the X axis (●). Thus, small molecules enhancing CART killing can be identified.
Birinapant was the only SMAC mimetic in the library.

[3] = system: human pre-B ALL cell line (NALM6 CBG-T2A-GFP); assay: Birinapant-enhanced CART19 killing of NALM6 with TNF antibodies, 72 hours; assay type: cell-based; details: NALM6 + CTL019, 1 μM birinapant with isotype control or TNF antibodies
Procedure: (§1) A human pre-B ALL cell line expressing endogenous CD19 and a luciferase reporter (NALM6 CBG-T2A-GFP) was cultured in the presence or absence of human T cells expressing a chimeric antigen receptor against CD19 (CTL019, KYMRIAH®). Cells were either treated with 1 μM of birinapant (TL32711, Medivir), corresponding amounts of DMSO or 1 μM birinapant (TL32711, Medivir) in combination with different amounts of isotype control or TNF antibodies. After 72 hours, luciferin was added to the cells and luminescence was detected using a luminometer (Biotek Synergy H4), Tumor killing was calculated using the formula: (sample−tumor treated with DMSO)/(lysis control−tumor treated with DMSO).
as §1, with “μM” for “μM of”, “and” for “in combination with”, “H4).” for “H4),”

[4] = system: human pre-B ALL cell line (NALM6 CBG-T2A-GFP); assay: CART19 (CTL019) killing of NALM6 with birinapant, luciferase readout after 72 hours; assay type: cell-based; details: NALM6 + CTL019 at different ratios, different doses of birinapant vs DMSO
Procedure: FIG. 1A is a graph showing the percentage of tumor killing by CART as a result of increasing concentrations of birinapant or corresponding amounts of DMSO as a control. FIG. 1B is a graph showing the percentage of tumor killing by CART as a function of CART:Tumor ratio. For FIGS. 1A-1B, a human pre-B ALL cell line expressing endogenous CD19 and a luciferase reporter (NALM6 CBG-T2A-GFP) was cultured in the presence or absence of human T cells expressing a chimeric antigen receptor against CD19 (CTL019, KYMRIAH®) at different ratios. Cells were treated with different doses of birinapant (TL32711, Medivir) or corresponding amounts of DMSO. After 72 hours luciferin was added to the cells and luminescence was detected using a luminometer (Biotek Synergy H4). Tumor killing was calculated using the formula: (sample−tumor treated with DMSO)/(lysis control−tumor treated with DMSO). […]
A human pre-B ALL cell line expressing endogenous CD19 and a luciferase reporter (NALM6 CBG-T2A-GFP) was cultured in the presence or absence of human T cells expressing a chimeric antigen receptor against CD19 (CTL019, KYMRIAH®) at different ratios. […] After 72 hours luciferin was added to the cells and luminescence was detected using a luminometer (Biotek Synergy H4). Tumor killing was calculated using the formula: (sample−tumor treated with DMSO)/(lysis control−tumor treated with DMSO). […]

[5] = system: human ovarian adenocarcinoma cell line (SKOV3); assay: Anti-HER2 CART (CAR 4D5) killing of SKOV3 with birinapant, impedance-based XCelligence; assay type: cell-based; details: SKOV3 + CAR 4D5, 1:1 CART:Tumor ratio, different doses of birinapant vs DMSO, real-time impedance
Procedure: FIG. 2A is a graph showing the growth and clearance of tumor cells over time. At approximately 21 h (vertical line) tumor cells were treated with only Birinapant (solid lines) or Birinapant and CART cells (dotted lines, 1:1 CART:Tumor ratio). FIG. 2B is analogous to FIG. 2A except for the addition of DMSO instead of Birinapant. FIGS. 2C and 2D summarize the results of FIGS. 2A and 2B, respectively (10 nM Birinapant or DMSO). For FIGS. 2A-2D, a human ovarian adenocarcinoma cell line (SKOV3) expressing endogenous HER2 was cultured in the presence or absence of human T cells expressing a chimeric antigen receptor against HER2 (CAR 4D5) at a 1:1 CART:Tumor ratio, Cells were treated with different doses of birinapant (TL32711, Medivir) or corresponding amounts of DMSO. Tumor killing was monitored in real-time using the impedance-based XCelligence® system (ACEA Biosciences, Inc),
A human ovarian adenocarcinoma cell line (SKOV3) expressing endogenous HER2 was cultured in the presence or absence of human T cells expressing a chimeric antigen receptor against HER2 (CAR 4D5; Liu et al. Cancer Research 2015; (7517):3596-607, incorporated by reference herein in its entirety) at a 1:1 CART:Tumor ratio. […] Tumor killing was monitored in real-time using the impedance-based XCelligence® system (ACEA Biosciences, Inc).

CN[C@@H](C)C(=O)N[C@H](C(=O)N1CCC[C@H]1C(=O)N[C@H]1c2ccccc2C[C@H]1OCC#CC#CCO[C@@H]1Cc2ccccc2[C@@H]1NC(=O)[C@@H]1CCCN1C(=O)[C@@H](NC(=O)[C@H](C)NC)C1CCCCC1)C1CCCCC1 [AZD5582, (2S,2′S)-N,N′-((S,1′S,2R,2′R)-(hexa-2,4-diyne-1,6-diylbis(oxy))bis(2,3-dihydro-1H-indene-2,1-diyl))bis(1-((S)-2-cyclohexyl-2-((S)-2-(methylamino)propanamido)acetyl)pyrrolidine-2-carboxamide)]
CART killing of solid tumor cell lines [1]: enhance CART killing of solid tumor cell lines

CN[C@@H](C)C(=O)N[C@H](C(=O)N1CCC[C@H]1C(=O)N[C@H](C(=O)NCCCCCCNC(=O)[C@@H](NC(=O)[C@@H]1CCCN1C(=O)[C@@H](NC(=O)[C@H](C)NC)C1CCCCC1)C(c1ccccc1)c1ccccc1)C(c1ccccc1)c1ccccc1)C1CCCCC1 [BV6, ((S,S,2S,2′S)-N,N′-((2S,2′S)-(hexane-1,6-diylbis(azanediyl))bis(3-oxo-1,1-diphenylpropane-3,2-diyl))bis(1-((S)-2-cyclohexyl-2-((S)-2-(methylamino)propanamido)acetyl)pyrrolidine-2-carboxamide))] (I: H-[NMeA][Chg]P[Dip] / II: H-[NMeA][Chg]P[Dip]; linker I:C-II:C via Hexamethylenediamine)
CART killing of solid tumor cell lines [1]: enhance CART killing of solid tumor cell lines

CCCCCCCCCCCC1=C(O)C(=O)C=C(O)C1=O [Embelin, 2,5-Dihydroxy-3-undecyl-2,5-cyclohexadiene-1,4-dione]
effect on CART killing activity in the screen [2]: Neither Embelin nor GDC-0152 revealed a significant effect on CART killing activity

CN[C@@H](C)C(=O)N[C@H](C(=O)N1CCC[C@H]1C(=O)Nc1snnc1-c1ccccc1)C1CCCCC1 [GDC-0152, (S)-1-((S)-2-cyclohexyl-2-((S)-2-(methylamino)propanamido)acetyl)-N-(4-phenyl-1,2,3-thiadiazol-5-yl)pyrrolidine-2-carboxamide]
effect on CART killing activity in the screen [2]: Neither Embelin nor GDC-0152 revealed a significant effect on CART killing activity

CC[C@H](NC(=O)[C@H](C)NC)C(=O)N1C[C@@H](O)C[C@H]1Cc1c(-c2[nH]c3cc(F)ccc3c2C[C@@H]2C[C@H](O)CN2C(=O)[C@H](CC)NC(=O)[C@H](C)NC)[nH]c2cc(F)ccc12 [birinapant, (2S)-N-[(2S)-1-[(2R,4S)-2-[[6-fluoro-2-[6-fluoro-3-[[(2R,4S)-4-hydroxy-1-[(2S)-2-[[(2S)-2-(methylamino)propanoyl]amino]butanoyl]pyrrolidin-2-yl]methyl]-1H-indol-2-yl]-1H-indol-3-yl]methyl]-4-hydroxypyrrolidin-1-yl]-1-oxobutan-2-yl]-2-(methylamino)propanamide]
CART killing of solid tumor cell lines [1]: enhance CART killing of solid tumor cell lines
TNF dependence of enhanced CART killing of tumor [3]: birinapant-enhanced CART killing of tumor is TNF-dependent
total cytotoxicity (%) of small molecules in combination with CART (X axis) ([2]; FIG. 7, NALM-6 + CART19, 0.3:1 E:T ratio): 40%
CART killing of leukemic cell lines [4]: enhances CART killing of leukemic cell lines
CART killing of solid tumor cell lines [5]: enhances CART killing of solid tumor cell lines
